Starred links: 1 amine or outer side, 2 acyl side, 3 side chain; linkers in the order of their positions; H or OH if unused. Positions of bridges follow the written chain, without caps; N, C: chain ends. Residues, ends and D or L forms follow the SMILES beside them. *: point of attachment. C20 diacid = O=C(O)CCCCCCCCCCCCCCCCCCC(=O)*; γGlu = O=C(O)[C@H](CCC(=O)[*:2])N[*:1]

The data set can be described thus: Assay (III) ThT fibrillation assay for physical stability. In kind it is physicochemical. To be noted: for Th T pH 4.0 lag time (h): 37° C., orbital shaking 960 rpm; for ThT pH 4.0 lag time: Table 9. From the text:
Low physical stability of a polypeptide may lead to amyloid fibril formation, which is observed as well-ordered, thread-like macromolecular structures in the sample eventually resulting in gel formation. This has traditionally been measured by visual inspection of the sample. However, that kind of measurement is very subjective and depending on the observer. Therefore, the application of a small molecule indicator probe is much more advantageous. Thioflavin T (ThT) is such a probe and has a distinct fluorescence signature when binding to fibrils [Naiki et al. (1989) Anal. Biochem. 177, 244-249; LeVine (1999) Methods. Enzymol. […], 274-284].
The time course for fibril formation can be described by a sigmoidal curve with the following expression [Nielsen et al. (2001) Biochemistry 40, 6036-6046]:
[formula] Here, F is the ThT fluorescence at the time t. The constant t0 is the time needed to reach 50% of maximum fluorescence. The two important parameters describing fibril formation are the lag-time calculated by t0−2T and the apparent rate constant kapp=1/τ.
Few of those intermediates nucleate to form a template onto which further intermediates may assembly and the fibrillation proceeds. The lag-time corresponds to the interval in which the critical mass of nucleus is built up and the apparent rate constant is the rate with which the fibril itself is formed.
Samples were prepared freshly before each assay. Each sample composition is described in each example. The pH of the sample was adjusted to the desired value using appropriate amounts of concentrated NaOH and HClO4 or HCl. Thioflavin T was added to the samples from a stock solution in H2O to a final concentration of 1 μM.
Sample aliquots of 200 μl were placed in a 96 well microtiter plate (Packard OptiPlate™-96, white polystyrene). Usually, four or eight replica of each sample (corresponding to one test condition) were placed in one column of wells. The plate was sealed with Scotch Pad (Qiagen).
Incubation at given temperature, shaking and measurement of the ThT fluorescence emission were done in a Fluoroskan Ascent FL fluorescence platereader or Varioskan platereader (Thermo Labsystems). The temperature was adjusted to 37° C. The orbital shaking was adjusted to 960 rpm with an amplitude of 1 mm in all the presented data. Fluorescence measurement was done using excitation through a 444 nm filter and measurement of emission through a 485 nm filter.
Each run was initiated by incubating the plate at the assay temperature for 10 min. The plate was measured every 20 minutes for a desired period of time. Between each measurement, the plate was shaken and heated as described.
The measurement points were saved in Microsoft Excel format for further processing and curve drawing and fitting was performed using GraphPad Prism. The background emission from ThT in the absence of fibrils was negligible. The data points are typically a mean of four or eight samples and shown with standard deviation error bars. Only data obtained in the same experiment (i.e. samples on the same plate) are presented in the same graph ensuring a relative measure of fibrillation […].
The data set may be fitted to Eq. (1). However, since full sigmodial curves in this case are not always achieved during the measurement time, the degree of fibrillation is expressed as ThT fluorescence tabulated as the mean of the samples and shown with the standard deviation at various time points.
The polypeptide concentration in each of the tested formulations were measured both before application in the ThT fibrillation assay (“Initial”) and after completion of the ThT fibrillation (“After ThT assay”). Concentrations were determined by reverse HPLC methods using a pramlintide standard as a reference. Before measurement after completion 150 μl was collected from each of the replica and transferred to an Eppendorf tube. These were centrifuged at 30000 G for 40 mins. […]

As to `CC[C@H](C)[C@H](NC(=O)[C@@H]1CCCN1C(=O)CNC(=O)[C@H](Cc1ccccc1)NC(=O)[C@H](CC(N)=O)NC(=O)[C@H](CC(N)=O)NC(=O)[C@H](CO)NC(=O)[C@H](CO)NC(=O)[C@H](Cc1c[nH]cn1)NC(=O)[C@H](CCCNC(=N)N)NC(=O)[C@H](CC(C)C)NC(=O)[C@H](Cc1ccccc1)NC(=O)[C@H](CCC(=O)O)NC(=O)[C@H](C)NC(=O)[C@H](CC(C)C)NC(=O)[C@H](CCCNC(=N)N)NC(=O)[C@H](CCC(N)=O)NC(=O)[C@@H](NC(=O)[C@H](C)NC(=O)[C@@H]1CSSC[C@H](NC(=O)[C@H](CCC(=O)O)NC(=O)[C@H](CCCNC(=N)N)NC(=O)[C@H](CCC(=O)O)NC(=O)CC[C@H](NC(=O)CCCCCCCCCCCCCCCCCCC(=O)O)C(=O)O)C(=O)N[C@@H](CC(N)=O)C(=O)N[C@@H]([C@@H](C)O)C(=O)N[C@@H](C)C(=O)N[C@@H]([C@@H](C)O)C(=O)N1)[C@@H](C)O)C(=O)N[C@@H](CC(C)C)C(=O)N1CCC[C@H]1C(=O)N1CCC[C@H]1C(=O)N[C@H](C(=O)N[C@@H](CC(N)=O)C(=O)N[C@H](C(=O)NCC(=O)N[C@@H](CO)C(=O)N[C@@H](CC(N)=O)C(=O)N[C@H](C(=O)N1CCC[C@H]1C(N)=O)[C@@H](C)O)C(C)C)[C@@H](C)O` [Example 124, N-alpha-[(S)-4-Carboxy-4-(19-carboxynonadecanoylamino)butyryl]-Glu-Arg-[Glu1, Glu14, Arg17, Pro37]-pramlintide] ({C20 diacid-γGlu}-ERECNTATCATQRLAEFLRHSSNNFGPILPPTNVGSNTP-NH2; disulfide 4-9), the “Th T pH 4.0 lag time (h)” value was above 45 h and the “ThT pH 4.0 lag time” value is reported as above 45 hr. For `CC[C@H](C)[C@H](NC(=O)[C@@H]1CCCN1C(=O)CNC(=O)[C@H](Cc1ccccc1)NC(=O)[C@H](CC(N)=O)NC(=O)[C@H](CCC(N)=O)NC(=O)[C@H](CO)NC(=O)[C@H](CO)NC(=O)[C@H](Cc1c[nH]cn1)NC(=O)[C@H](Cc1c[nH]cn1)NC(=O)[C@H](CC(C)C)NC(=O)[C@H](Cc1ccccc1)NC(=O)[C@H](CCC(=O)O)NC(=O)[C@H](C)NC(=O)[C@H](CC(C)C)NC(=O)[C@H](CCCNC(=N)N)NC(=O)[C@H](CCC(N)=O)NC(=O)[C@@H](NC(=O)[C@H](C)NC(=O)[C@@H]1CSSC[C@H](NC(=O)[C@H](CCCCN)NC(=O)CC[C@H](NC(=O)CCCCCCCCCCCCCCCCCCC(=O)O)C(=O)O)C(=O)N[C@@H](CC(N)=O)C(=O)N[C@@H]([C@@H](C)O)C(=O)N[C@@H](C)C(=O)N[C@@H]([C@@H](C)O)C(=O)N1)[C@@H](C)O)C(=O)N[C@@H](CC(C)C)C(=O)N1CCC[C@H]1C(=O)N1CCC[C@H]1C(=O)N[C@H](C(=O)N[C@@H](CC(N)=O)C(=O)N[C@H](C(=O)NCC(=O)N[C@@H](CO)C(=O)N[C@@H](CC(N)=O)C(=O)N[C@H](C(=O)N1CCC[C@H]1C(N)=O)[C@@H](C)O)C(C)C)[C@@H](C)O` [Example 130, N-alpha-[(S)-4-Carboxy-4-(19-carboxynonadecanoylamino)butyryl]-[Glu14, His17, Gln21, Pro37]-pramlintide] ({C20 diacid-γGlu}-KCNTATCATQRLAEFLHHSSQNFGPILPPTNVGSNTP-NH2; disulfide 2-7 (inferred); C-terminus assumed), the “Th T pH 4.0 lag time (h)” value was above 45 h and the “ThT pH 4.0 lag time” value was above 45 hr.

Turning to `CC[C@H](C)[C@H](NC(=O)[C@@H]1CCCN1C(=O)CNC(=O)[C@H](Cc1ccccc1)NC(=O)[C@H](CC(N)=O)NC(=O)[C@H](CC(N)=O)NC(=O)[C@H](CO)NC(=O)[C@H](CO)NC(=O)[C@H](Cc1c[nH]cn1)NC(=O)[C@H](Cc1c[nH]cn1)NC(=O)[C@H](CC(C)C)NC(=O)[C@H](Cc1ccccc1)NC(=O)[C@H](CCC(=O)O)NC(=O)[C@H](C)NC(=O)[C@H](CC(C)C)NC(=O)[C@H](CCCNC(=N)N)NC(=O)[C@H](CCC(N)=O)NC(=O)[C@@H](NC(=O)[C@H](C)NC(=O)[C@@H]1CSSC[C@H](NC(=O)[C@H](CCCCN)NC(=O)CC[C@H](NC(=O)CCCCCCCCCCCCCCCCCCC(=O)O)C(=O)O)C(=O)N[C@@H](CC(N)=O)C(=O)N[C@@H]([C@@H](C)O)C(=O)N[C@@H](C)C(=O)N[C@@H]([C@@H](C)O)C(=O)N1)[C@@H](C)O)C(=O)N[C@@H](CC(C)C)C(=O)N1CCC[C@H]1C(=O)N1CCC[C@H]1C(=O)N[C@H](C(=O)N[C@@H](CC(N)=O)C(=O)N[C@H](C(=O)NCC(=O)N[C@@H](CO)C(=O)N[C@@H](CCC(N)=O)C(=O)N[C@H](C(=O)N1CCC[C@H]1C(N)=O)[C@@H](C)O)C(C)C)[C@@H](C)O` [Example 135, N-alpha-[(S)-4-Carboxy-4-(19-carboxynonadecanoylamino)butyryl]-[Glu14, His17, Gln35, Pro37]-pramlintide] ({C20 diacid-γGlu}-KCNTATCATQRLAEFLHHSSNNFGPILPPTNVGSQTP-NH2; disulfide 2-7), the “Th T pH 4.0 lag time (h)” value is reported as above 45 h and the “ThT pH 4.0 lag time” value is recorded as above 45 hr. The like results for `CC[C@H](C)[C@H](NC(=O)[C@@H]1CCCN1C(=O)CNC(=O)[C@H](Cc1ccccc1)NC(=O)[C@H](CC(N)=O)NC(=O)[C@H](CCC(N)=O)NC(=O)[C@H](CO)NC(=O)[C@H](CO)NC(=O)[C@H](Cc1c[nH]cn1)NC(=O)[C@H](Cc1c[nH]cn1)NC(=O)[C@H](CC(C)C)NC(=O)[C@H](Cc1ccccc1)NC(=O)[C@H](CCC(=O)O)NC(=O)[C@H](C)NC(=O)[C@H](CC(C)C)NC(=O)[C@H](CCCNC(=N)N)NC(=O)[C@H](CCC(N)=O)NC(=O)[C@@H](NC(=O)[C@H](C)NC(=O)[C@@H]1CSSC[C@H](NC(=O)[C@H](CCCCN)NC(=O)CC[C@H](NC(=O)CCCCCCCCCCCCCCCCCCC(=O)O)C(=O)O)C(=O)N[C@@H](CC(N)=O)C(=O)N[C@@H]([C@@H](C)O)C(=O)N[C@@H](C)C(=O)N[C@@H]([C@@H](C)O)C(=O)N1)[C@@H](C)O)C(=O)N[C@@H](CC(C)C)C(=O)N1CCC[C@H]1C(=O)N1CCC[C@H]1C(=O)N[C@H](C(=O)N[C@@H](CC(N)=O)C(=O)N[C@H](C(=O)NCC(=O)N[C@@H](CO)C(=O)N[C@@H](CCC(N)=O)C(=O)N[C@H](C(=O)N1CCC[C@H]1C(N)=O)[C@@H](C)O)C(C)C)[C@@H](C)O` [Example 136, N-alpha-[(S)-4-Carboxy-4-(19-carboxynonadecanoylamino)butyryl]-[Glu14, His17, Gln21, Gln35, Pro37]-pramlintide] ({C20 diacid-γGlu}-KCNTATCATQRLAEFLHHSSQNFGPILPPTNVGSQTP-NH2; disulfide 2-7) were, in that order, above 45 h and above 45 hr.

Turning to `CC[C@H](C)[C@H](NC(=O)[C@@H]1CCCN1C(=O)CNC(=O)[C@H](Cc1ccccc1)NC(=O)[C@H](CC(N)=O)NC(=O)[C@H](CCC(N)=O)NC(=O)[C@H](CO)NC(=O)[C@H](CO)NC(=O)[C@H](Cc1c[nH]cn1)NC(=O)[C@H](Cc1c[nH]cn1)NC(=O)[C@H](CC(C)C)NC(=O)[C@H](Cc1ccccc1)NC(=O)[C@H](CCC(=O)O)NC(=O)[C@H](C)NC(=O)[C@H](CC(C)C)NC(=O)[C@H](CCCNC(=N)N)NC(=O)[C@H](CCC(N)=O)NC(=O)[C@@H](NC(=O)[C@H](C)NC(=O)[C@@H]1CSSC[C@H](NC(=O)CNC(=O)CC[C@H](NC(=O)CCCCCCCCCCCCCCCCCCC(=O)O)C(=O)O)C(=O)N[C@@H](CC(N)=O)C(=O)N[C@@H]([C@@H](C)O)C(=O)N[C@@H](C)C(=O)N[C@@H]([C@@H](C)O)C(=O)N1)[C@@H](C)O)C(=O)N[C@@H](CC(C)C)C(=O)N1CCC[C@H]1C(=O)N1CCC[C@H]1C(=O)N[C@H](C(=O)N[C@@H](CC(N)=O)C(=O)N[C@H](C(=O)NCC(=O)N[C@@H](CO)C(=O)N[C@@H](CCC(N)=O)C(=O)N[C@H](C(=O)N1CCC[C@H]1C(N)=O)[C@@H](C)O)C(C)C)[C@@H](C)O` [Example 137, N-alpha-[(S)-4-Carboxy-4-(19-carboxynonadecanoylamino)butyryl]-[Gly1, Glu14, His17, Gln21, Gln35, Pro37]-pramlintide] ({C20 diacid-γGlu}-GCNTATCATQRLAEFLHHSSQNFGPILPPTNVGSQTP-NH2; disulfide 2-7), the “Th T pH 4.0 lag time (h)” value is recorded as 29 h.

Values taken from US9029325B2, “Amylin analogues and pharmaceutical compositions thereof” (Novo Nordisk A/S, priority 2011, dated 2015).
